Measurements taken from the supplement of paper PMC13380429.
± gives the standard deviation of the averaged measurements.

Key:
Details in all cases: 72 h
[1] = tested on: Caco-2; test: relative viability EC50 (midpoint between 100% and the lowest measured viability); higher = less toxic
[2] = tested on: Calu-3; test: as above
[3] = tested on: Vero E6; test: as above
[4] = tested on: HepG2; test: as above
[5] = tested on: U2OS; test: as above
[6] = tested on: Caco-2; test: drug sensitivity score (DSS) for viability; higher = more toxic; extreme values may be limits of the assay
[7] = tested on: Calu-3; test: as above
[8] = tested on: Vero E6; test: as above
[9] = tested on: HepG2; test: as above
[10] = tested on: U2OS; test: as above
[11] = tested on: Caco-2; test: cell viability relative to DMSO; higher = less toxic
[12] = tested on: Calu-3; test: as above
[13] = tested on: Vero E6; test: as above
[14] = tested on: HepG2; test: as above
[15] = tested on: U2OS; test: as above

SMILES | relative viability EC50 [1] | relative viability EC50 [2] | relative viability EC50 [3] | relative viability EC50 [4] | relative viability EC50 [5] | drug sensitivity score [6] | drug sensitivity score [7] | drug sensitivity score [8] | drug sensitivity score [9] | drug sensitivity score [10] | cell viability ([11]; 1 nM) | cell viability ([11]; 10 nM) | cell viability ([11]; 100 nM) | cell viability ([11]; 1000 nM) | cell viability ([11]; 10000 nM) | cell viability ([12]; 1 nM) | cell viability ([12]; 10 nM) | cell viability ([12]; 100 nM) | cell viability ([12]; 1000 nM) | cell viability ([12]; 10000 nM) | cell viability ([13]; 1 nM) | cell viability ([13]; 10 nM) | cell viability ([13]; 100 nM) | cell viability ([13]; 1000 nM) | cell viability ([13]; 10000 nM) | cell viability ([14]; 1 nM) | cell viability ([14]; 10 nM) | cell viability ([14]; 100 nM) | cell viability ([14]; 1000 nM) | cell viability ([14]; 10000 nM) | cell viability ([15]; 1 nM) | cell viability ([15]; 10 nM) | cell viability ([15]; 100 nM) | cell viability ([15]; 1000 nM) | cell viability ([15]; 10000 nM)
CCOC(=O)c1ccccc1OC(N)=O [ethyl-2-(carbamoyloxy)benzoate] | > 10 µM | > 10 µM | > 10 µM | > 10 µM | > 10 µM | 0 | 0 | 0 | 0 | 0 | 104% | 91.5% | 97.1% | 106% | 96.9% | 93.2% | 92.5% | 98% | 122% | 103% | 109% | 91.4% | 102% | 106% | 103% | 106% | 87.2% | 94.2% | 83.5% | 103% | 98.6% | 103% | 100% | 102% | 98.6%
CC(C)c1cccc2c(-c3ccccc3)cc(-c3ccc(-c4ccc(C(=O)O)cc4)[nH]3)nc12 | > 10 µM | > 10 µM | > 10 µM | > 10 µM | > 10 µM | 1.5 | 0 | 1.4 | 0 | 0 | 89.3% | 102% | 96.5% | 91.7% | 76.1% | 103% | 96.2% | 99.2% | 117% | 103% | 95.6% | 94% | 86.7% | 83.9% | 91.3% | 94.8% | 87.1% | 100% | 98.8% | 87.6% | 97.5% | 101% | 98.9% | 103% | 96.9%
COC(=O)C1=C(C)NC(C)=C(C(=O)OC/C=C/c2ccccc2)C1c1cccc([N+](=O)[O-])c1 (stereo not given) [pranidipine] | > 10 µM | > 10 µM | > 10 µM | > 10 µM | > 10 µM | 0 | 0 | 0 | 0 | 0 | 101% | 80% | 97% | 91.5% | 92.6% | 103% | 101% | 99.7% | 91.7% | 91.8% | 93.8% | 103% | 83.1% | 95.1% | 96.9% | 97.1% | 102% | 107% | 103% | 95.1% | 98.1% | 93% | 99.6% | 95.5% | 94.8%
O=c1ccn([C@@H]2O[C@H](COP(=O)(O)OP(=O)(O)OP(=O)(O)O)[C@@H](O)[C@H]2O)c(=O)[nH]1 [INS316] | > 10 µM | > 10 µM | > 10 µM | > 10 µM | > 10 µM | 0 | 0 | 0 | 0 | 0 | 102 ± 6% | 107 ± 18% | 109 ± 1.8% | 113 ± 26% | 93.5 ± 13% | 94.5 ± 3.1% | 95.8 ± 7.1% | 92.5 ± 1.9% | 100.8 ± 0.21% | 101 ± 7.7% | 98.6 ± 2.5% | 93.3 ± 11% | 98.2 ± 2.6% | 98.5 ± 4.2% | 99.1 ± 3.1% | 100 ± 1.2% | 107 ± 2% | 109 ± 10% | 105 ± 3% | 103 ± 5.7% | 99.4 ± 5.7% | 95.9 ± 3.8% | 103 ± 7.8% | 96.3 ± 6.7% | 105 ± 1.8%
Nc1cc(C(F)(F)F)c(-c2cc(N3CCOCC3)nc(N3CCOCC3)n2)cn1 [buparlisib] | 0.761 µM | 0.434 µM | 1.22 µM | 1.3 µM | 1.57 µM | 10.3 | 12.7 | 8.4 | 9.1 | 7.9 | 95.3% | 99% | 91.5% | 53.5% | 18% | 116% | 97.3% | 87.7% | 40.5% | 18% | 101% | 97% | 92.9% | 66.2% | 17.8% | 100% | 96.6% | 95.7% | 67.2% | 10.5% | 103% | 102% | 104% | 79.4% | 15.6%
C=CCNC(=O)c1cc([N+](=O)[O-])cc2c(=O)[nH]c(Nc3ccc(Cl)c(Cl)c3)nc12 | > 10 µM | > 10 µM | > 10 µM | > 10 µM | > 10 µM | 0 | 0 | 0 | 0 | 0 | 100% | 95.5% | 99.1% | 96.5% | 98.4% | 104% | 93.2% | 103% | 102% | 94% | 92.4% | 94.3% | 92.9% | 97.5% | 97.7% | 104% | 90.5% | 100% | 91.9% | 95.8% | 97.7% | 96.2% | 102% | 98% | 92.1%
CC(C)=CCC/C(C)=C/CC/C(C)=C/CSc1ccccc1C(N)=O [farnesyl-thiosalicylic-acid-amide] | > 10 µM | > 10 µM | > 10 µM | > 10 µM | > 10 µM | 0 | 0 | 0 | 0.1 | 0 | 104% | 116% | 95% | 116% | 104% | 106% | 92.4% | 108% | 105% | 111% | 89.8% | 101% | 92.8% | 87.1% | 99.7% | 100% | 105% | 96.6% | 108% | 85.7% | 98.9% | 100% | 105% | 98.3% | 102%
N[C@H]1C[C@@H]1c1ccc(-c2cccc(O)c2)cc1 [OG-L002] | > 10 µM | > 10 µM | > 10 µM | > 10 µM | > 10 µM | 0 | 0 | 0 | 0 | 0 | 104% | 100% | 102% | 101% | 105% | 108% | 106% | 99.3% | 95.3% | 108% | 96% | 103% | 95.9% | 104% | 107% | 103% | 97.6% | 100% | 115% | 114% | 101% | 94.3% | 98.3% | 97.8% | 96.4%
Nc1nonc1/C(=N/O)Nc1ccc(F)c(Cl)c1 [IDO5L] | > 10 µM | > 10 µM | > 10 µM | > 10 µM | > 10 µM | 0 | 0 | 0 | 0 | 0 | 101% | 95.2% | 115% | 87.7% | 109% | 92.5% | 96% | 108% | 89.6% | 114% | 106% | 102% | 96.7% | 98.8% | 114% | 92.8% | 97.8% | 104% | 89.9% | 91.2% | 93.1% | 95.7% | 102% | 95.5% | 102%
CCCCOc1nc(N)c2c(n1)N(Cc1cccc(CN3CCCC3)c1)CC(=O)N2 [GS-9620] | > 10 µM | > 10 µM | > 10 µM | > 10 µM | > 10 µM | 0 | 0 | 0 | 0 | 0 | 96.3% | 104% | 91.4% | 98.5% | 98.3% | 101% | 95.1% | 111% | 96.1% | 104% | 108% | 96.3% | 101% | 103% | 98.8% | 105% | 102% | 95.9% | 100% | 99.1% | 100% | 96.5% | 96.8% | 95.6% | 101%
CC(C)(C)NCC(O)COc1cccc2c1CCC(=O)N2 (stereo not given) [carteolol] | > 10 µM | > 10 µM | > 10 µM | > 10 µM | > 10 µM | 0 | 0 | 0 | 0 | 0 | 100% | 96.1% | 95.8% | 98.1% | 95.7% | 94.8% | 109% | 104% | 92.9% | 104% | 96.3% | 95.9% | 98.4% | 99% | 98.3% | 101% | 87.8% | 100% | 101% | 105% | 98.5% | 101% | 95.9% | 97.2% | 93.9%
CN[C@H]1C(=O)N[C@@H]2Cc3ccc(cc3)Oc3cc4cc(c3O[C@@H]3O[C@H](C(=O)O)[C@@H](O)[C@H](O)[C@H]3NC(=O)CCCCCCCCC(C)C)Oc3ccc(cc3Cl)[C@@H](O)[C@@H]3NC(=O)[C@H](NC(=O)[C@@H]4NC(=O)[C@@H](NC2=O)c2cc(cc(O)c2Cl)Oc2cc1ccc2O)c1ccc(O)c(c1)-c1c(O[C@H]2O[C@H](CO)[C@@H](O)[C@H](O)[C@@H]2O)cc(O)cc1[C@@H](C(=O)NCCCN(C)C)NC3=O [dalbavancin] | > 10 µM | > 10 µM | > 10 µM | > 10 µM | > 10 µM | 0 | 0 | 0 | 0 | 0 | 89.3% | 106% | 92.6% | 111% | 90.1% | 95.2% | 102% | 95.2% | 103% | 95% | 111% | 114% | 109% | 87.3% | 102% | 88.7% | 94.3% | 118% | 91.4% | 116% | 99.1% | 100% | 96.9% | 98% | 95.8%
C[C@]12C/C(=C/O)C(=O)C[C@@H]1CC[C@@H]1[C@@H]2CC[C@@]2(C)[C@H]1CC[C@]2(C)O [Oxymetholone] | > 10 µM | > 10 µM | > 10 µM | > 10 µM | > 10 µM | 0 | 0 | 0 | 0 | 0 | 100% | 87.8% | 102% | 90.4% | 96.1% | 117% | 97.6% | 97.3% | 102% | 101% | 97.4% | 101% | 106% | 104% | 96.3% | 101% | 108% | 96% | 111% | 96% | 102% | 97.8% | 99.6% | 97% | 98.1%
